From patent US20050209157A1, “Short bioactive peptides and methods for their use” (priority 2001, published 2005)
No end group written: not given here.

How the values were obtained:
[1] = test system: human leukocyte (WBC) cells; assay: Stimulation and proliferation of leukocytes, Alamar Blue; format: cell-based; details: compared to untreated positive control cells; Alamar Blue
[2] = Solubility of peptides in sheep serum; format: physicochemical
Pseudomonas aeruginosa = assay: Serum inactivation of peptides, serum MIC; format: cell-based; details: for MIC 30 min treatment: sheep serum 37° C. 30 minutes; for MIC 2 hr treatment: sheep serum 37° C. 2 hours
Protocol: Subsequently, the serum MICs against Pseudomonas aeruginosa were conducted to determine extent of serum inactivation of the peptides.

Row | Substance | stimulatory and/or inhibitory action on growth of human leukocyte (WBC) cells [1] | Solubility ([2]; sheep serum, […], 70% serum) | Solubility ([2]; sheep, 70% sheep serum) [µg/mL] | MIC 30 min treatment (Pseudomonas aeruginosa; first of two columns) [µg/mL] | MIC 30 min treatment (Pseudomonas aeruginosa; second of two columns) [µg/mL] | MIC 2 hr treatment (Pseudomonas aeruginosa; first of two columns) [µg/mL] | MIC 2 hr treatment (Pseudomonas aeruginosa; second of two columns) [µg/mL] | change of activity by exposure to serum (serum MIC against Pseudomonas aeruginosa) (Pseudomonas aeruginosa; sheep serum, […], 37° C. for 30 minutes or 2 hours)
1 | MPKWKVFKKIEKVGRNIRNGIVKAGPAIAVLGEAKALG-NH2 [P12, reference compound] | stimulatory (and/or proliferative) at all concentrations through 500 μg/ml | – | – | – | – | – | – | –
2 | FALKALKKLKKALKKAL-NH2 [P153] | – | Soluble | ≥ 1280 | 10 | 5 | 20 | 5 | only modestly decreased
